We go through seven compounds from patent US6825194B2, “Hexacyclic compounds” (Chugai Seiyaku Kabushiki Kaisha, priority 2001, dated 2004).

The IC50 is the midpoint of a concentration-inhibition curve.

Molecules are shown by their SMILES. Like-named read-outs stand apart in the source and are kept apart here.

One series relates to QG56. The series can be described thus: Anti-proliferative activity assay, QG56. In kind it is cell-based, human. To be noted: QG56 non small cell lung cancer cells, 4 days, WST-8, read-out: Anti-proliferative activity assay (IC50 in nM) QG56 (NSCLC). On the procedure: (§1) Antiproliferative activity assay was carried out as follows. A single suspension of tumor cells was inoculated to the serially diluted 96-well microtestplate. Then the testplate was incubated in the 5% CO2 ambience at 37° C. for 4 days (2-3×10^3 cells/well). The degree of cell growth in a monolayer was measured by using WST-8 (Dojindo, Japan). IC50 values of drugs against tumor cells were calculated as the concentration of drug yielding 50% OD of the control growth. The IC50 value measures the drug concentration for 50% of the growth of tumor cells in vitro as compared to the control.
(§2) The anti-tumor activities of hexacyclic compounds of the formula [1A] and [1B] against in vitro growth of human tumor cell lines, HCT116 and DLD-1 of colorectal cancer (CRC) and QG56 and NCI-H460 of non small cell lung cancer (NSCLC) are summarized in Table 1. These cell lines are commercially available via the American Type Culture Collection (ATTC).
On the technique in general: Formazan colour is commonly taken as a measure of viable cells.

In a further series the test system is DLD-1. Put plainly: Anti-proliferative activity assay, DLD-1. To be noted: DLD-1 colorectal cancer cells, 4 days, WST-8, read-out: Anti-proliferative activity assay (IC50 in nM) DLD-1 (CRC). The class given is cell-based, human. On the procedure: as §1, §2
The test system of another series is HCT116. Put plainly: Anti-proliferative activity assay, HCT116. In kind it is cell-based, human. To be noted: HCT116 colorectal cancer cells, 4 days, WST-8, read-out: Anti-proliferative activity assay (IC50 in nM) HCT116 (CRC). How it is done:
as §1, §2

The subject of another series is NCI-H460. The series can be described thus: Anti-proliferative activity assay, NCI-H460. In kind it is cell-based, human. To be noted: NCI-H460 non small cell lung cancer cells, 4 days, WST-8, read-out: Anti-proliferative activity assay (IC50 in nM) NCI-H460 (NSCLC). How it is done: as §1, §2
For series [1] the following is noted: converted to the inactive carboxylate form; cited from earlier work.

Regarding `CC[C@@]1(O)C(=O)OCc2c1cc1n(c2=O)Cc2c-1nc1cccc3c1c2N(CCc1ccccc1)C(=O)N3` [Compound A, (9S)-9-ethyl-9-hydroxy-1-phenethyl-1H,12H-pyrano[3″,4″:6′,7′]indolizino[1′,2′:6,5]pyrido[4,3,2-de]quinazoline-2,10,13(3H,9H,15H)-trione], the IC50 came out at 7.1 nM with QG56 (Homo sapiens, QG-56, 96 h); 11 nM in the series with DLD-1 (Homo sapiens, 96 h); 1.9 nM in the series with HCT116 (Homo sapiens, HCT-116, 96 h); 6.5 nM in the series with NCI-H460 (Homo sapiens, 96 h).
The corresponding values for `CCCCCN1C=Nc2cccc3nc4c(c1c23)Cn1c-4cc2c(c1=O)COC(=O)[C@]2(O)CC` [Compound B, (9S)-9-ethyl-9-hydroxy-1-pentyl-1H,12H-pyrano[3″,4″:6′,7′]indolizino[1′,2′:6,5]pyrido[4,3,2-de]quinazoline-10,13(9H,15H)-dione] are 7.7 nM, 23 nM, 6.1 nM and 7 nM.
On to `CC[C@@]1(O)C(=O)OCc2c1cc1n(c2=O)Cc2c-1nc1cccc3c1c2NC(=S)N3CCC(C)C` [Compound D, (9S)-9-ethyl-9-hydroxy-1-(3-methylbutyl)-2(3H)-thioxo-1H,12H-pyrano[3″,4″:6′,7′]indolizino[1′,2′:6,5]pyrido[4,3,2-de]quinazoline-10,13(9H,15H)-dione], for which the IC50 stood at 17 nM in the series on QG56, 15 nM in the series with DLD-1, 5.1 nM with HCT116 and 10 nM with NCI-H460.
For the compound `CCCCCN1C(C)=Nc2cccc3nc4c(c1c23)Cn1c-4cc2c(c1=O)COC(=O)[C@]2(O)CC` [Compound E, (9S)-9-ethyl-9-hydroxy-2-methyl-1-pentyl-1H,12H-pyrano[3″,4″:6′,7′]indolizino[1′,2′:6,5]pyrido[4,3,2-de]quinazoline-10,13(9H,15H)-dione], the IC50 with QG56 (Homo sapiens, QG-56, 96 h) worked out at 15 nM; in the series on DLD-1 (Homo sapiens, 96 h), 15 nM; with HCT116 (Homo sapiens, HCT-116, 96 h), 4.5 nM; in the series with NCI-H460 (Homo sapiens, 96 h) it was 7.9 nM.
With `CC[C@@]1(O)C(=O)OCc2c1cc1n(c2=O)Cc2c-1nc1cccc3c1c2N(CCC(C)C)C(CO)=N3` [Compound F, (9S)-9-ethyl-9-hydroxy-2-hydroxymethyl-1-(3-methylbutyl)-1H,12H-pyrano[3″,4″:6′,7′]indolizino[1′,2′:6,5]pyrido[4,3,2-de]quinazoline-10,13(9H,15H)-dione], the IC50 in the series with QG56 (Homo sapiens, QG-56, 96 h) was 7.4 nM; in the series on DLD-1 (Homo sapiens, 96 h) it was 12 nM; in the series with HCT116 (Homo sapiens, HCT-116, 96 h), 3.1 nM; with NCI-H460 (Homo sapiens, 96 h) it was 4.8 nM.
Turning to `CCc1c2c(nc3ccc(O)cc13)-c1cc3c(c(=O)n1C2)COC(=O)[C@]3(O)CC` [SN-38, 7-ethyl-10-hydroxycamptothecin, reference compound], the IC50 with QG56 is 27 nM; with DLD-1, 53 nM; in the series on HCT116, 6.9 nM; in the series on NCI-H460 it was 21 nM.
As for `CC[C@@]1(O)C(=O)OCc2c1cc1n(c2=O)Cc2cc3ccccc3nc2-1` [camptothecin, 4(S)-ethyl-4-hydroxy-1H-pyrano[3′,4′:6,7]indolizino[1,2-b]quinoline-3,14(4H,12H)-dione], the half-life in plasma entry in series [1] is listed as “less than 30 min”.
